# In PubChem BioAssay AID1963984 (Molecular Pharmacology Branch, DTP, NCI, 2024):
# Test system: 233499-124-R-J3-PDC spheroids with HUVEC/MSC, viability
# Assay: Anticancer human tumor 233499-124-R-J3-PDC patient-derived colon adenocarcinoma cell line growth inhibition [PI3K]
# Conditions: for IC50: curve of first compound; for viability, T/C: stronger effect = lower value
# How it was run: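 Multi-cell spheroids combine tumor cells with HUVEC and human MSCs, treated with targeted agents alone or with inavolisib, alpelisib, duvelisib or copanlisib. Concentrations fall in half-log steps from at or near clinical Cmax, or from 10 microM where Cmax is unknown; viability read-out.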
# [1] = second compound 0.0316 µM, first compound 0.0316 µM
# [2] = second compound 0.0316 µM, first compound 0.1 µM
# [3] = second compound 0.1 µM, first compound 0.0316 µM
# [4] = second compound 0.1 µM, first compound 0.1 µM
# [5] = second compound 0.316 µM, first compound 0.0316 µM
# [6] = second compound 0.316 µM, first compound 0.1 µM
# [7] = second compound 1 µM, first compound 0.0316 µM
# [8] = second compound 1 µM, first compound 0.1 µM
# [9] = second compound 3.16 µM, first compound 0.0316 µM
# [10] = second compound 3.16 µM, first compound 0.1 µM
# [11] = second compound 10 µM, first compound 0.0316 µM
# [12] = second compound 10 µM, first compound 0.1 µM
# 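Further: spheroids exposed to agents for seven days before readout.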
# 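Wherever viability, T/C is given: percent viability relative to DMSO vehicle control taken as 100%.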
smiles,measurement,setting,value
CC(C)n1nc(-c2ccc3oc(N)nc3c2)c2c(N)ncnc21 + Cc1nc(NC(=O)N2CCCC2C(N)=O)sc1-c1ccnc(C(C)(C)C(F)(F)F)c1,IC50,second compound 0.0316 µM,> 0.1 µM
same,IC50,second compound 0.1 µM,0.0859 µM
same,IC50,second compound 0.316 µM,> 0.1 µM
same,IC50,second compound 1 µM,0.0375 µM
same,IC50,second compound 3.16 µM,0.00581 µM
same,IC50,second compound 10 µM,< 0.000316 µM
same,"viability, T/C","second compound 0.0316 µM, first compound 0.000316 µM",103%
same,"viability, T/C","second compound 0.0316 µM, first compound 0.001 µM",90.9%
same,"viability, T/C","second compound 0.0316 µM, first compound 0.00316 µM",103%
same,"viability, T/C","second compound 0.0316 µM, first compound 0.01 µM",64.7%
same,"viability, T/C",[1],92.6%
same,"viability, T/C",[2],55.2%
same,"viability, T/C","second compound 0.1 µM, first compound 0.000316 µM",99.4%
same,"viability, T/C","second compound 0.1 µM, first compound 0.001 µM",92.4%
same,"viability, T/C","second compound 0.1 µM, first compound 0.00316 µM",54.8%
same,"viability, T/C","second compound 0.1 µM, first compound 0.01 µM",86%
same,"viability, T/C",[3],84%
same,"viability, T/C",[4],45.1%
same,"viability, T/C","second compound 0.316 µM, first compound 0.000316 µM",89.9%
same,"viability, T/C","second compound 0.316 µM, first compound 0.001 µM",81%
same,"viability, T/C","second compound 0.316 µM, first compound 0.00316 µM",90.1%
same,"viability, T/C","second compound 0.316 µM, first compound 0.01 µM",79.1%
same,"viability, T/C",[5],67.7%
same,"viability, T/C",[6],53.9%
same,"viability, T/C","second compound 1 µM, first compound 0.000316 µM",68%
same,"viability, T/C","second compound 1 µM, first compound 0.001 µM",71.8%
same,"viability, T/C","second compound 1 µM, first compound 0.00316 µM",82.1%
same,"viability, T/C","second compound 1 µM, first compound 0.01 µM",62.4%
same,"viability, T/C",[7],55.3%
same,"viability, T/C",[8],25.2%
same,"viability, T/C","second compound 3.16 µM, first compound 0.000316 µM",61.2%
same,"viability, T/C","second compound 3.16 µM, first compound 0.001 µM",50.6%
same,"viability, T/C","second compound 3.16 µM, first compound 0.00316 µM",73%
same,"viability, T/C","second compound 3.16 µM, first compound 0.01 µM",39.7%
same,"viability, T/C",[9],43.7%
same,"viability, T/C",[10],30.7%
same,"viability, T/C","second compound 10 µM, first compound 0.000316 µM",43.7%
same,"viability, T/C","second compound 10 µM, first compound 0.001 µM",26.4%
same,"viability, T/C","second compound 10 µM, first compound 0.00316 µM",29.7%
same,"viability, T/C","second compound 10 µM, first compound 0.01 µM",26.3%
same,"viability, T/C",[11],24.5%
same,"viability, T/C",[12],6.69%
CC1(C)CCC(CN2CCN(c3ccc(C(=O)NS(=O)(=O)c4ccc(NCC5CCOCC5)c([N+](=O)[O-])c4)c(Oc4cnc5[nH]ccc5c4)c3)CC2)=C(c2ccc(Cl)cc2)C1 + Cc1nc(NC(=O)N2CCCC2C(N)=O)sc1-c1ccnc(C(C)(C)C(F)(F)F)c1,IC50,second compound 0.0316 µM,6.18 µM
same,IC50,second compound 0.1 µM,5.47 µM
same,IC50,second compound 0.316 µM,5.38 µM
same,IC50,second compound 1 µM,4.33 µM
same,IC50,second compound 3.16 µM,2.61 µM
same,IC50,second compound 10 µM,< 0.0316 µM
same,"viability, T/C",[1],110%
same,"viability, T/C",[2],104%
same,"viability, T/C","second compound 0.0316 µM, first compound 0.316 µM",107%
same,"viability, T/C","second compound 0.0316 µM, first compound 1 µM",115%
same,"viability, T/C","second compound 0.0316 µM, first compound 3.16 µM",106%
same,"viability, T/C","second compound 0.0316 µM, first compound 10 µM",10.1%
same,"viability, T/C",[3],112%
same,"viability, T/C",[4],98.1%
same,"viability, T/C","second compound 0.1 µM, first compound 0.316 µM",66.5%
same,"viability, T/C","second compound 0.1 µM, first compound 1 µM",109%
same,"viability, T/C","second compound 0.1 µM, first compound 3.16 µM",93%
same,"viability, T/C","second compound 0.1 µM, first compound 10 µM",2.57%
same,"viability, T/C",[5],99.9%
same,"viability, T/C",[6],89.3%
same,"viability, T/C","second compound 0.316 µM, first compound 0.316 µM",76%
same,"viability, T/C","second compound 0.316 µM, first compound 1 µM",88.3%
same,"viability, T/C","second compound 0.316 µM, first compound 3.16 µM",88.9%
same,"viability, T/C","second compound 0.316 µM, first compound 10 µM",5.24%
same,"viability, T/C",[7],97.6%
same,"viability, T/C",[8],73.7%
same,"viability, T/C","second compound 1 µM, first compound 0.316 µM",80.8%
same,"viability, T/C","second compound 1 µM, first compound 1 µM",82.8%
same,"viability, T/C","second compound 1 µM, first compound 3.16 µM",67%
same,"viability, T/C","second compound 1 µM, first compound 10 µM",4.35%
same,"viability, T/C",[9],61.9%
same,"viability, T/C",[10],51.9%
same,"viability, T/C","second compound 3.16 µM, first compound 0.316 µM",61.8%
same,"viability, T/C","second compound 3.16 µM, first compound 1 µM",62.4%
same,"viability, T/C","second compound 3.16 µM, first compound 3.16 µM",48.1%
same,"viability, T/C","second compound 3.16 µM, first compound 10 µM",1.21%
same,"viability, T/C",[11],32.1%
same,"viability, T/C",[12],26.4%
same,"viability, T/C","second compound 10 µM, first compound 0.316 µM",22.6%
same,"viability, T/C","second compound 10 µM, first compound 1 µM",31.1%
same,"viability, T/C","second compound 10 µM, first compound 3.16 µM",9.66%
same,"viability, T/C","second compound 10 µM, first compound 10 µM",2.29%
